Test results: publication PMC7660225, “New Chemical Probe Targeting Bacterial NAD Kinase” (Molecules, 2020)

What was measured:
recombinant LmNADK1 = target: T1, recombinant LmNADK1 (Listeria monocytogenes serovar 1/2a, UniProt Q8Y8D7); experiment: LmNADK1 inhibition, coupling assay (Ki measurements); type: biochemical; conditions: for Ki: competitive inhibition fit, 30 °C, pH 7.0, inhibitor 0, 10, 25 or 50 µM, 0-2 mM NAD, 0.1 µM LmNADK1; for inhibitory potency compared to inhibitor 1 (NKI1): result in words
T1 construct: made in house
T1 sequence (Q8Y8D7 1-264): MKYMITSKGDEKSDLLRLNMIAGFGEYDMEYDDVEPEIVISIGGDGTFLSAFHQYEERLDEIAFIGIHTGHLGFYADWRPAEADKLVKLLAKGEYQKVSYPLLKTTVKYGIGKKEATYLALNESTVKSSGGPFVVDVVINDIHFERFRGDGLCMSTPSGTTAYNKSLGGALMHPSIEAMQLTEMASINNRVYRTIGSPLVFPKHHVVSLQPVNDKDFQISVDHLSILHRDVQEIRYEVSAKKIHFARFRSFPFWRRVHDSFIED
Experimental: Another important parameter to select the chemical probe is that it retains its binding properties. The potency of ligands 2–5 as inhibitors of recombinant LmNADK1 in vitro were determined using the coupling assay described previously.
Activity was measured at 30 °C in 50 mM Bis-Tris pH 7.0, 2 mM sodium citrate, 1 mM MgCl2. Reaction mixtures contained 0–2 mM NAD, 4 mM MgATP, 5 mM Glucose 6-phosphate, 1 U/mL Glucose 6-phosphate dehydrogenase and 0.1 µM LmNADK1. Steady state rate constants (kss) were calculated by fitting the initial (first 500–1000 s) linear part of the NADP production time courses per NADK. Inhibitors were tested at 4 concentrations: 0, 10, 25 or 50 µM and Ki values were determined using the competitive inhibition equation, kss = kcat × NAD/(KM × (1 + [inhibitor]/Ki) + NAD), with GraFit software (v 7.0.3).
Figure 5 Determination of inhibition constants of compounds 1–5. Inhibitor concentrations were 0 (circles), 10 (triangles), 25 (squares) and 50 (stars) µM. Secondary plots (kss as a function of initial NAD concentration) were fitted assuming a competitive inhibition using GraFit software (v 7.0.3) and are presented here as double reciprocal plots. […] TEXT PRINTED IN THE PICTURE: NKI1: Ki (μM): 17.2 | 2: Ki (μM): 347 | 3: Ki (μM): 52.2 | 4: Ki (μM): 23.8 | 5: Ki (μM): 5.6

S. aureus = system: S. aureus; set-up: method as in PMID 32017533; conditions: including antibiotic-resistant strains; cited from earlier work
crystallized LmNADK1 = target: T2, crystallized LmNADK1 (Listeria monocytogenes serovar 1/2a, UniProt Q8Y8D7); experiment: X-ray crystallography of soaked LmNADK1 crystals; type: binding; conditions: soaking procedure; structures refined to 2.2-2.4 Å
T2 construct: made in house
T2 sequence (Q8Y8D7 1-264): T1 sequence (Q8Y8D7 1-264)
Experimental: A prerequisite to use a chemical probe is that it retains its binding affinity for its target. The binding properties of the four synthesized derivatives 2–5 were analyzed by X-ray crystallography. We checked the binding properties of these new di-adenosine derivatives by determining their complex with crystallized LmNADK1. The soaking procedure described previously for inhibitor 1 [18] was used to obtain crystals of the target in complex with compounds 2-5. The X-ray structures were solved by molecular replacement using PDB6RGC [18] as a starting template and refined to 2.2–2.4 Å resolution.

Row | SMILES | Ki (recombinant LmNADK1) [µM] | activity in mice infected with S. aureus (S. aureus) | inhibitory potency compared to inhibitor 1 (NKI1) (recombinant LmNADK1) | complex formation / binding mode with crystallized LmNADK1 (crystallized LmNADK1)
1 | Nc1ncnc2c1ncn2C1OC(COCC#Cc2nc3c(N)ncnc3n2C2OC(CO)C(O)C2O)C(O)C1O (centres unmarked) [NKI1] | 17.2 | active in mice infected with S. aureus |  | 
2 | NCCCCNc1ncnc2c1ncn2C1OC(COCC#Cc2nc3c(N)ncnc3n2C2OC(CO)C(O)C2O)C(O)C1O (centres unmarked) [Compound 3, 8-[3-(N^6-4-Aminobutyl-5’-O-adenosinyl)propargyl]adenosine] | 52.2 |  | sharp decrease in inhibitory potency | failed to yield complex
3 | NCCCC(=O)NCC1OC(n2c(C#CCOCC3OC(n4cnc5c(N)ncnc54)C(O)C3O)nc3c(N)ncnc32)C(O)C1O (centres unmarked) [Compound 4, 5’-O-[3-(5’-(4-Aminobutylamido)-5’-deoxy-adenosin-8-yl)prop-2-yn-1-yl]-adenosine] | 23.8 |  | slightly reduced inhibitory potency | very similar to that of NKI1
4 | NCCNc1ncnc2c1ncn2C1OC(COCC#Cc2nc3c(N)ncnc3n2C2OC(CO)C(O)C2O)C(O)C1O (centres unmarked) [Compound 2, 8-[3-(N^6-2-Aminoethyl-5’-O-adenosinyl)propargyl]adenosine] | 347 |  | sharp decrease in inhibitory potency | led to a complex with the target
5 | NCCCN(CC#Cc1nc2c(N)ncnc2n1C1OC(CO)C(O)C1O)CC1OC(n2cnc3c(N)ncnc32)C(O)C1O (centres unmarked) [Compound 5, 5’-[N-3-Aminopropyl-N-(3-(adenosin-8-yl)propargyl)amino]-5’-deoxyadenosine] | 5.6 |  | slightly increased | very similar to that of NKI1
